Measured values taken from patent US11802120B2, “Fused cyclic urea derivatives as CRHR2 antagonist” (RaQualia Pharma Inc., priority 2018, dated 2023).

Assays:
Type in all cases: cell-based
human CRHR2-alpha = target: T1, human CRHR2-alpha (Homo sapiens, UniProt Q13324); assay: cAMP functional assay for human CRHR2 (LANCE Ultra cAMP, TR-FRET); settings: CHO-K1 cells expressing human CRHR2-alpha, agonist human urocortin2 at EC80, cAMP; read-out: IC50 against CRHR2
T1 sequence (Q13324 1-411): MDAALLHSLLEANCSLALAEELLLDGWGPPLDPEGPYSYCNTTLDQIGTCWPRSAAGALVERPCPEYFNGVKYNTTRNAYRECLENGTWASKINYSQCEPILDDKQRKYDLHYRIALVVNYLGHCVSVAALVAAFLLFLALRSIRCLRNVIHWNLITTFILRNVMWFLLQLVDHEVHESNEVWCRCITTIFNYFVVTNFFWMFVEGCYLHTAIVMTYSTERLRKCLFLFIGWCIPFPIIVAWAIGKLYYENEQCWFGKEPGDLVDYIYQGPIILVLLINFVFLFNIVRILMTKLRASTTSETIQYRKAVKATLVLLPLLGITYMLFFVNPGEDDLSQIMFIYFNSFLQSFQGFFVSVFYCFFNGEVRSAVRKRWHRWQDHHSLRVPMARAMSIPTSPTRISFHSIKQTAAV
Procedure, shortened: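 Inhibition of agonist-driven cAMP was assessed in recombinant CHO-K1 cells at 25° C, using 30 min compound pretreatment and 30 min stimulation with EC80 human urocortin2 (CRHR2) or CRF (CRHR1). IC50 came from dose-response fitting.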

CRHR2 = target: T2, CRHR2 (Homo sapiens, UniProt Q13324); assay: CRHR2 antagonistic activity (inhibitory activity against CRHR2)
T2 sequence (Q13324 1-411): T1 sequence (Q13324 1-411)

human CRHR1-beta = target: T3, human CRHR1-beta (Homo sapiens, UniProt P34998); assay: cAMP functional assay for human CRHR1 (LANCE Ultra cAMP, TR-FRET); settings: CHO-K1 cells expressing human CRHR1-beta, agonist CRF at EC80, cAMP; read-out: IC50 against CRHR1
T3 sequence (P34998 24-444 isoform P34998-1 limits assumed): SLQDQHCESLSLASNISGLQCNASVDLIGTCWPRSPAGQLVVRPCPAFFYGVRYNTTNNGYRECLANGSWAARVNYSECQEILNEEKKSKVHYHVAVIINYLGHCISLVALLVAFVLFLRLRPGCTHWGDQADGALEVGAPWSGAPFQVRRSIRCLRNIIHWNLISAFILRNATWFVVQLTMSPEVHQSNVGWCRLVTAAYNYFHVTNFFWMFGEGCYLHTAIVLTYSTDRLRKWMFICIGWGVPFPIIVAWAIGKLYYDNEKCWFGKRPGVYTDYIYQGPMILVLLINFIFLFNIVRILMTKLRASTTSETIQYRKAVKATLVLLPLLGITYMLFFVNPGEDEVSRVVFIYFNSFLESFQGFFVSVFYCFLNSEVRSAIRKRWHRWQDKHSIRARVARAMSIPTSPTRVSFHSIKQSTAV
Experimental: cAMP functional assay for human CRHR1 and CRHR2
The ability of the compounds of this invention to inhibit either CRHR2 or CRHR1 is assessed by 3′,5′-cyclic adenosine monophosphate (cAMP) production in cells using the LANCE Ultra cAMP assay kit (ParkinElmer), which are designed based on the homogeneous time-resolved fluorescence resonance energy transfer (TR-FRET) immunoassay.
CHO-K1 (Chinese hamster ovary) cells stably expressing either human CRHR2-alpha (DiscoveRX, Cat. 95-0048C2) or human CRHR1-beta (DiscoveRX, Cat. 95-0047C2) are grown in HAM's F12 media supplemented with 10% fetal bovine serum (FBS), 100 units/mL penicillin, 100 microg/mL hygromycin and 0.5 microg/mL geneticin at 37° C. in 5% CO2 humidified incubator to 80% confluence. After 7 hours starvation treatment in culture media containing 0.1% FBS, the cells are washed with Hanks balanced salt solution (HBSS) and cryopreserved.
For cAMP assay, frozen cells are thawed and washed with HBSS, followed by resuspended in assay buffer (HBSS containing 0.1% bovine serum albumin, 0.5 mM isobutylmethylxanthine and 5 mM Hepes, pH 7.4) at the appropriate concentration for the assay. The cell suspensions are plated on 384-well microplates (Greiner Bio-One) at a density of 4,000 cells per well. After preincubating the cells with various concentrations of the compounds for 30 min at 25° C., an assay buffer containing EC80 concentration of each agonist is added and the cells are incubated for 30 min at 25° C. Human urocortin2 (Peptide Institute) and CRF (Peptide Institute) are used as agonists for CRHR2 and CRHR1, respectively. For the termination of assay, europium-labeled cAMP tracer and ULight (registered trademark) dye labeled cAMP antibodies, both prepared with Lance-Ultra cAMP detection reagent (Perkin Elmer) are added in the plate and incubate for 60 min at 25° C. After incubation, TR-FRET signal is detected by EnVision plate reader (PerkinElmer). The IC50 values for compounds are calculated from dose-response curves by fitting the percent inhibition using XLfit (ID Business Solutions).

IC50 (human CRHR2-alpha)	IC50 (CRHR2)	IC50 (human CRHR1-beta)	SMILES
< 300 nM	60 nM	< 1000 nM	COc1ccc(-n2c(=O)n(C[C@H]3CC[C@H](NC(=O)c4cc(Cl)cnc4C)CC3)c3ccccc32)cn1 [Example 30, 5-chloro-N-((1r,4r)-4-((3-(6-methoxypyridin-3-yl)-2-oxo-2,3-dihydro-1H-benzo[d]imidazol-1-yl)methyl)cyclohexyl)-2-methylnicotinamide]
< 300 nM	280 nM	–	Cc1ncc(Cl)cc1C(=O)N[C@H]1CC[C@H](Cn2c(=O)n(-c3cccnc3)c3ccccc32)CC1 [Example 156, 5-chloro-2-methyl-N-((1r,4r)-4-((2-oxo-3-(pyridin-3-yl)-2,3-dihydro-1H-benzo[d]imidazol-1-yl)methyl)cyclo-hexyl)nicotinamide]
